Measurements from patent publication US20240390298A1, “CYCLOHEXYL BETA-HYDROXY ALKYL AMINES AND MEDICAL USES THEREOF” (ATROGI AB, priority 2021, published 2024).
Structures can show the parent of a compound that is named as a salt.

How the values were obtained:
L6-myotubes [1] = assay: Glucose uptake in differentiated L6-myotubes (3H-2-deoxyglucose), compared to isoproterenol; type: cell-based; details: agonist 1×10^−5 M, 50 nM 3H-2-deoxyglucose
Method in brief: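 Serum-starved differentiated L6 myotubes stimulated with agonist at 1×10^−5 M for 1 h 40 min, re-dosed in glucose-free medium for 20 min, then given 50 nM ^3H-2-deoxyglucose for 10 min. Uptake read by β-counting of NaOH lysates; activity expressed relative to isoproterenol.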

L6-myotubes [2] = assay: Measurement of intracellular cAMP levels in differentiated L6 cells (alpha screen cAMP kit), compared to isoproterenol; type: cell-based; details: agonist 1×10^−5 M, 15 min; for Emax at 10 µM: Rattus norvegicus, L6, 0.25 h, read-out: Biological example 2: intracellular cAMP levels, activity compared to that of isoproterenol
Method in brief: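 L6 myoblasts were differentiated into myotubes over 7 days in 2% FBS, then serum-starved overnight. Agonist at 1×10^−5 M final was applied for 15 min in HBSS with 1% BSA, 5 mM HEPES and 1 mM IBMX, pH 7.4. After ethanol extraction and lysis, cAMP was quantified by AlphaScreen, with activity expressed relative to isoproterenol.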

Row | Compound | Biological example 1: glucose uptake, activity compared to that of isoproterenol (L6-myotubes [1]) | Emax at 10 µM (L6-myotubes [2]) | Biological example 2: intracellular cAMP levels, activity compared to that of isoproterenol (L6-myotubes [2])
1 | CN([C@H]1CC[C@H](CC(C)(C)NC[C@H](O)c2cccc(F)c2)CC1)S(C)(=O)=O.Cl [Example 179, N-((1R,4r)-4-(2-(((R)-2-(3-Fluorophenyl)-2-hydroxyethyl)amino)-2-methylpropyl)cyclohexyl)-N-methylmethanesulfonamide hydrochloride] | + + | < 25% | 
2 | CC(=O)N(C)[C@H]1CC[C@@H](CC(C)(C)NC[C@H](O)c2cccc(F)c2)CC1.Cl [Example 180, N-((1S,4s)-4-(2-(((R)-2-(3-Fluorophenyl)-2-hydroxyethyl)amino)-2-methylpropyl)cyclohexyl)-N-methylacetamide hydrochloride] | + + | < 25% | 
3 | CN([C@H]1CC[C@@H](CC(C)(C)NC[C@H](O)c2cccc(F)c2)CC1)S(C)(=O)=O.Cl [Example 181, N-((1S,4s)-4-(2-((®-2-(3-Fluorophenyl)-2-hydroxyethyl)amino)-2-methyl-propyl)cyclohexyl)-N-methylmethanesulfonamide hydrochloride] | + + | < 25% | 
4 | CC(=O)N(C)[C@H]1CC[C@H](CC(C)(C)NC[C@H](O)c2cncc(F)c2)CC1.Cl [Example 182, N-((1R,4r)-4-(2-(((R)-2-(5-Fluoropyridin-3-yl)-2-hydroxyethyl)amino)-2-methylpropyl)cyclohexyl)-N-methylacetamide] | + + + | 25 to 50% | 
5 | CN([C@H]1CC[C@H](CC(C)(C)NC[C@H](O)c2cncc(F)c2)CC1)S(C)(=O)=O.Cl [Example 183, N-((1R,4r)-4-(2-(((R)-2-(5-Fluoropyridin-3-yl)-2-hydroxyethyl)amino)-2-methylpropyl)cyclohexyl)-N-methylmethanesulfonamide] | + + + | < 25% | 
6 | CC(=O)N(C)[C@H]1CC[C@@H](CC(C)(C)NC[C@H](O)c2cncc(F)c2)CC1.Cl [Example 184, N-((1S,4s)-4-(2-(((R)-2-(5-Fluoropyridin-3-yl)-2-hydroxyethyl)amino)-2-methylpropyl)cyclohexyl)-N-methylacetamide] | + + + | < 25% | 
7 | CN([C@H]1CC[C@@H](CC(C)(C)NC[C@H](O)c2cncc(F)c2)CC1)S(C)(=O)=O.Cl [Example 185, N-((1S,4s)-4-(2-(((R)-2-(5-Fluoropyridin-3-yl)-2-hydroxyethyl)amino)-2-methylpropyl)cyclohexyl)-N-methylmethanesulfonamide] | + + + | < 25% | 
8 | CN(C)S(=O)(=O)[C@H]1CC[C@H](CC(C)(C)NC[C@H](O)c2cccc(F)c2)CC1.Cl [Example 186, (1R,4r)-4-(2-(((R)-2-(3-Fluorophenyl)-2-hydroxyethyl)amino)-2-methyl-propyl)-N,N-dimethylcyclohexane-1-sulfonamide hydrochloride] | + + + |  | + +
9 | CN(C)S(=O)(=O)[C@H]1CC[C@H](CC(C)(C)NC[C@H](O)c2cncc(F)c2)CC1 [Example 187, (1R,4r)-4-(2-(((R)-2-(5-Fluoropyridin-3-yl)-2-hydroxyethyl)amino)-2-methylpropyl)-N,N-dimethylcyclohexane-1-sulfonamide dihydrochloride] | + + + | 25 to 50% | 
10 | CN(C)S(=O)(=O)[C@H]1CC[C@@H](CC(C)(C)NC[C@H](O)c2cccc(F)c2)CC1.Cl [Example 188, (1S,4s)-4-(2-(((R)-2-(3-fluorophenyl)-2-hydroxyethyl)amino)-2-methyl-propyl)-N,N-dimethylcyclohexane-1-sulfonamide hydrochloride] | + + + | 25 to 50% | 
11 | CN(C)S(=O)(=O)[C@H]1CC[C@@H](CC(C)(C)NC[C@H](O)c2cncc(F)c2)CC1 [Example 189, (1S,4s)-4-(2-(((R)-2-(5-Fluoropyridin-3-yl)-2-hydroxyethyl)amino)-2-methylpropyl)-N,N-dimethylcyclohexane-1-sulfonamide dihydrochloride] | + + + |  | + +
12 | CNS(=O)(=O)[C@H]1CC[C@H](CC(C)(C)NC[C@H](O)c2cccc(F)c2)CC1 [Example 190, (1R,4r)-4-(2-(((R)-2-(3-Fluorophenyl)-2-hydroxyethyl)amino)-2-methyl-propyl)-N-methylcyclohexane-1-sulfonamide hydrochloride] | + + + | 25 to 50% | 
13 | CNS(=O)(=O)[C@H]1CC[C@H](CC(C)(C)NC[C@H](O)c2cncc(F)c2)CC1 [Example 191, (1R,4r)-4-(2-(((R)-2-(5-Fluoropyridin-3-yl)-2-hydroxyethyl)amino)-2-methylpropyl)-N-methylcyclohexane-1-sulfonamide dihydrochloride] | + + | < 25% | 
14 | CNS(=O)(=O)[C@H]1CC[C@@H](CC(C)(C)NC[C@H](O)c2cccc(F)c2)CC1.Cl [Example 192, (1S,4s)-4-(2-(((R)-2-(3-Fluorophenyl)-2-hydroxyethyl)amino)-2-methyl-propyl)-N-methylcyclohexane-1-sulfonamide hydrochloride] | + + + | < 25% | 
15 | CNS(=O)(=O)[C@H]1CC[C@@H](CC(C)(C)NC[C@H](O)c2cncc(F)c2)CC1 [Example 193, (1S,4s)-4-(2-(((R)-2-(5-Fluoropyridin-3-yl)-2-hydroxyethyl)amino)-2-methylpropyl)-N-methylcyclohexane-1-sulfonamide dihydrochloride] | + + + | < 25% | 
16 | CC(C)(C[C@H]1CC[C@H](S(N)(=O)=O)CC1)NC[C@H](O)c1cccc(F)c1.Cl [Example 194, (1R,4r)-4-(2-(((R)-2-(3-Fluorophenyl)-2-hydroxyethyl)amino)-2-methylpropyl)cyclohexane-1-sulfonamide hydrochloride] | + + + | < 25% | 
17 | CC(C)(C[C@H]1CC[C@H](S(N)(=O)=O)CC1)NC[C@H](O)c1cncc(F)c1 [Example 195, (1R,4r)-4-(2-(((R)-2-(5-Fluoropyridin-3-yl)-2-hydroxyethyl)amino)-2-methylpropyl)cyclohexane-1-sulfonamide dihydrochloride] | + + + | < 25% | 
18 | CC(C)(C[C@H]1CC[C@@H](S(N)(=O)=O)CC1)NC[C@H](O)c1cccc(F)c1.Cl [Example 196, (1S,4s)-4-(2-(((R)-2-(3-Fluorophenyl)-2-hydroxyethyl)amino)-2-methylpropyl)cyclohexane-1-sulfonamide hydrochloride] | + + + | < 25% | 
19 | CC(C)(C[C@H]1CC[C@@H](S(N)(=O)=O)CC1)NC[C@H](O)c1cncc(F)c1 [Example 197, (1S,4s)-4-(2-(((R)-2-(5-Fluoropyridin-3-yl)-2-hydroxyethyl)amino)-2-methylpropyl)cyclohexane-1-sulfonamide dihydrochloride] | + + + | < 25% | 
20 | CCCS(=O)(=O)N[C@H]1CC[C@@H](CC(C)(C)NC[C@H](O)c2cncc(F)c2)CC1 [Example 198, N-((1S,4s)-4-(2-(((R)-2-(5-Fluoropyridin-3-yl)-2-hydroxyethyl)amino)-2-methylpropyl)cyclohexyl)propane-1-sulfonamide] | + + + | < 25% | 
21 | CC(C)(C[C@H]1CC[C@@H](NS(=O)(=O)C(F)(F)F)CC1)NC[C@H](O)c1cncc(F)c1 [Example 199, 1,1,1-Trifluoro-N-((1S,4s)-4-(2-(((R)-2-(5-fluoropyridin-3-yl)-2-hydroxy-ethyl)amino)-2-methylpropyl)cyclohexyl)methanesulfonamide dihydrochloride] | + + + | < 25% | 
